Calls of active or inactive are those of the source. For most assays here, no stated cut-off is given here; in the data, actives have a measured Kd and inactives only a lower limit.

The source of these data is ChEMBL document CHEMBL3991601, “The target landscape of clinical kinase drugs” (Science, 2017).

Assay [1] addresses T1, Serine/threonine-protein kinase Chk1 (Homo sapiens, UniProt O14757).
T1 sequence (O14757 whole entry): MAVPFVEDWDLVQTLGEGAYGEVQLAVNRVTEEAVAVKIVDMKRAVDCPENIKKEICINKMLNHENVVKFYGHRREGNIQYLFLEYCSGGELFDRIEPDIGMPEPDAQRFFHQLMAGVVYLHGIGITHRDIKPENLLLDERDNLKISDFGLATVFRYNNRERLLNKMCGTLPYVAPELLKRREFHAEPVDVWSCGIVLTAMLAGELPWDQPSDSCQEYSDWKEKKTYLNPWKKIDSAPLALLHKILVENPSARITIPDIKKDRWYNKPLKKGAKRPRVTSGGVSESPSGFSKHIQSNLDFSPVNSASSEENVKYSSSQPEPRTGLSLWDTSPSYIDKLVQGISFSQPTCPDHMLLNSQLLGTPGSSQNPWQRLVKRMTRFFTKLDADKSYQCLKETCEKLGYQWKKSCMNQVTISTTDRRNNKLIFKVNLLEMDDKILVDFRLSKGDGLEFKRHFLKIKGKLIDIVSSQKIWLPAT

The target in assay [2] is LIM domain kinase 1 (Homo sapiens, UniProt P53667).
The target in assay [3] is T2, Serine/threonine-protein kinase Nek1 (Homo sapiens, UniProt Q96PY6).
T2 sequence (Q96PY6 whole entry): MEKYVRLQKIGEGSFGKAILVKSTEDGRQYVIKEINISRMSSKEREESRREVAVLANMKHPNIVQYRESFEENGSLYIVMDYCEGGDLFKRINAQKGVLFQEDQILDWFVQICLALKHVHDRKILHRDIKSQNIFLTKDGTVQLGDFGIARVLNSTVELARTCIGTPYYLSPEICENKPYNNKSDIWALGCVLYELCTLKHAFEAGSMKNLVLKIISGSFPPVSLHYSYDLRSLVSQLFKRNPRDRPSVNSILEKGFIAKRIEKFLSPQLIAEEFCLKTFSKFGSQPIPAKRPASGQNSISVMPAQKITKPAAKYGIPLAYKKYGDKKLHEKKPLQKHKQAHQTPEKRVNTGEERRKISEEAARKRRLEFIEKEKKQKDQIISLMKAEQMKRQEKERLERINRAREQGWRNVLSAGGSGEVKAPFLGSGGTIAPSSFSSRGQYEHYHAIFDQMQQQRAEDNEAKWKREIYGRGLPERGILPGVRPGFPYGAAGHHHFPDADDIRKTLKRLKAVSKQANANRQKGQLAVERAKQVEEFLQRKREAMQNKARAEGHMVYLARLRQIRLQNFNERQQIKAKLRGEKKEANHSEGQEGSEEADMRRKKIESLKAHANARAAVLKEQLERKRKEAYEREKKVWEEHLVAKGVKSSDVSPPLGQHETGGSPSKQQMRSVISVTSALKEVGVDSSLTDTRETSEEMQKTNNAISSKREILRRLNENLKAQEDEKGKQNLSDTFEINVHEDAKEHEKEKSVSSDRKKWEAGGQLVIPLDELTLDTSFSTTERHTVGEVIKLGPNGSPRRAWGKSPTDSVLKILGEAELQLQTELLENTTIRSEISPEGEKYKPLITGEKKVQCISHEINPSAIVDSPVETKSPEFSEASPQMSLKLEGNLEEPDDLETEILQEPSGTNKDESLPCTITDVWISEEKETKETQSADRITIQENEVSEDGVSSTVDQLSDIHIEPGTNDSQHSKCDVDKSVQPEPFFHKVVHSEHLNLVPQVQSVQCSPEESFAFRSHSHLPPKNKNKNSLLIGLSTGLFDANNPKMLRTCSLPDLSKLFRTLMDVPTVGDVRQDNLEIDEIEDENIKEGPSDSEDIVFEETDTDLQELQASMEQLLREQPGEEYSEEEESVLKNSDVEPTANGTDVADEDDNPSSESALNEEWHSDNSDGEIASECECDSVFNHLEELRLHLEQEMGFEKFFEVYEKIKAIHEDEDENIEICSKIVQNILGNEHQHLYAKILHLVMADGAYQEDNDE

In assay [4] the target is T3, Serine/threonine-protein kinase 3 (Homo sapiens, UniProt Q13188).
T3 sequence (Q13188 whole entry): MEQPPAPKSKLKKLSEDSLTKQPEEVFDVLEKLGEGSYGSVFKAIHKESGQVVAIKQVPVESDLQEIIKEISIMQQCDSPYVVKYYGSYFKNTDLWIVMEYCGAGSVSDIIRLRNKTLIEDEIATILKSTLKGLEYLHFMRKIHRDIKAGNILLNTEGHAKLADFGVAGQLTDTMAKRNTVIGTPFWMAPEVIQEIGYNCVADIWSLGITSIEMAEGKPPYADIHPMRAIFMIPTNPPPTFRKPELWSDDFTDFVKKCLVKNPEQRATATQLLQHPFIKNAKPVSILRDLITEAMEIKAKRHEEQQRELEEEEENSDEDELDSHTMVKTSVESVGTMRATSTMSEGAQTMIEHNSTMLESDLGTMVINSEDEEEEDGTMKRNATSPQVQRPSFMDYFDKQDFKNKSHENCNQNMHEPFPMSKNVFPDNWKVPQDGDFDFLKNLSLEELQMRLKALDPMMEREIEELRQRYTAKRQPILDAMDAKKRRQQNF

The target in assay [5] is T4, Tyrosine-protein kinase Tec (Homo sapiens, UniProt P42680).
T4 sequence (P42680 whole entry): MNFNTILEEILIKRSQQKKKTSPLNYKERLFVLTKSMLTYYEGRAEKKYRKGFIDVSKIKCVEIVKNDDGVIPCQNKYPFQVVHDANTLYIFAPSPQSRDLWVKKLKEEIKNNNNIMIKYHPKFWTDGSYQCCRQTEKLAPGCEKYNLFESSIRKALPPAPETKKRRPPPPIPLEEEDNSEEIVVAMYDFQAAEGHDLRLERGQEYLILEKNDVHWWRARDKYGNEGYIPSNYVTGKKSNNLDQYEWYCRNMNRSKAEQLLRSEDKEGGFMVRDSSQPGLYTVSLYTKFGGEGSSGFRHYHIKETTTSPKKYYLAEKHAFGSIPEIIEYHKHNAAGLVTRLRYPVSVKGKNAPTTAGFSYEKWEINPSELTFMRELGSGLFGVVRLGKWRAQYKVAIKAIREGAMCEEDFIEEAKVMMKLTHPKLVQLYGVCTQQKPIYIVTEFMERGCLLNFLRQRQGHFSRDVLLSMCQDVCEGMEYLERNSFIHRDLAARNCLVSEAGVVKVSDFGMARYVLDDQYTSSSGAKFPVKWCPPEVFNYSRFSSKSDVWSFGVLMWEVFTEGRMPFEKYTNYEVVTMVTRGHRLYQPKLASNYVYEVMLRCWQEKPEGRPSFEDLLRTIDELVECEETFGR

LIM domain kinase 1, sequence (P53667 whole entry, the tested form may be a part): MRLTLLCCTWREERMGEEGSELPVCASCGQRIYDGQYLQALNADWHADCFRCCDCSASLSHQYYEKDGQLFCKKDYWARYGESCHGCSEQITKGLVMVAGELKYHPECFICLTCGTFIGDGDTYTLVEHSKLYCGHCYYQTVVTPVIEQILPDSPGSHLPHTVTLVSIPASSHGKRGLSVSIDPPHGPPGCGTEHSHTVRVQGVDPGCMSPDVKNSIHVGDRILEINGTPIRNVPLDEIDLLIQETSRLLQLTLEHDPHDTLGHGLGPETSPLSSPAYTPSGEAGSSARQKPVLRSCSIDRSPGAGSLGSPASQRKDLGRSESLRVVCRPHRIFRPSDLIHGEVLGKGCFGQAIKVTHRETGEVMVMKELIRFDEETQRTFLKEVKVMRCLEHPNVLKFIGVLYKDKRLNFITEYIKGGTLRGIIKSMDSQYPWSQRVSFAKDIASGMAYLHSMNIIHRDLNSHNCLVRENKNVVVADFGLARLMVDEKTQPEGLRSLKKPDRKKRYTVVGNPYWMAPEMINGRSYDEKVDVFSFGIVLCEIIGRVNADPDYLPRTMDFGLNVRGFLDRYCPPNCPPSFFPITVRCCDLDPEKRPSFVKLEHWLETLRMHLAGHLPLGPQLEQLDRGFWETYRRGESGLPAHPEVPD

In the case of `Cc1cc2c(F)c(Oc3ncnn4cc(OC[C@@H](C)OC(=O)[C@H](C)N)c(C)c34)ccc2[nH]1` [BRIVANIB ALANINATE], the Kd in assay [1], in assay [2], in assay [3], in assay [4] and in assay [5] was > 30 µM (inactive) in each case.

For the compound `CN1CCC(CNc2ccc3ncc(-c4cccc(OC(F)(F)F)c4)n3n2)CC1` [SGI-1776], the Kd in assay [1], in assay [2], in assay [3], in assay [4] and in assay [5] was > 30 µM (inactive) throughout.

Consider `CC[C@H](Nc1ncnc2[nH]cnc12)c1nc2cccc(F)c2c(=O)n1-c1ccccc1` [IDELALISIB], for which the Kd in assay [1], in assay [2], in assay [3], in assay [4] and in assay [5] was > 30 µM (inactive) each time.

Take `COC(=O)N[C@@H](C)CNc1nccc(-c2cn(C(C)C)nc2-c2cc(Cl)cc(NS(C)(=O)=O)c2F)n1` [ENCORAFENIB]: the Kd in assay [1] is > 30 µM (inactive); in assay [2], 0.026 µM (active); in assay [3] it was > 30 µM (inactive); in assay [4], > 30 µM (inactive); in assay [5] it was > 30 µM (inactive).

As for `O=c1sn(-c2cccc3ccccc23)c(=O)n1Cc1ccccc1` [TIDEGLUSIB], the Kd in assay [1], in assay [2], in assay [3], in assay [4] and in assay [5] was > 30 µM (inactive) in each case.

With `COC(=O)[C@@]1(O)C[C@H]2O[C@]1(C)n1c3ccccc3c3c4c(c5c6ccccc6n2c5c31)C(=O)NC4` [K-252A], the Kd in assay [1] is 0.122 µM (active); in assay [2], > 30 µM (inactive); in assay [3], > 30 µM (inactive); in assay [4], 0.043 µM (active); in assay [5], > 30 µM (inactive).

As for `O=C(c1ccc(F)c(F)c1Nc1ccc(I)cc1F)N1CC(O)([C@@H]2CCCCN2)C1` [COBIMETINIB], the Kd in assay [1], in assay [2], in assay [3], in assay [4] and in assay [5] was > 30 µM (inactive) throughout.

As for `C1=C/COCc2cc(ccc2OCCN2CCCC2)Nc2nccc(n2)-c2cccc(c2)COC/1` [PACRITINIB], the Kd in assay [1], in assay [2], in assay [3], in assay [4] and in assay [5] was > 30 µM (inactive) each time.

For the compound `Cc1ccc(S(=O)(=O)Nc2nc3ccccc3nc2Nc2ccc3nsnc3c2)cc1`, the Kd in assay [1], in assay [2], in assay [3], in assay [4] and in assay [5] was > 30 µM (inactive) in each case.

In the case of `Cn1cc(-c2ccc(F)c(C(F)(F)F)c2)nc1C1CCN(c2ncnc3[nH]ncc23)CC1` [LY-2584702], the Kd in assay [1], in assay [2], in assay [3], in assay [4] and in assay [5] was > 30 µM (inactive) each time.

Take `CN(C)C(=O)c1cc2cnc(Nc3ccc(N4CCNCC4)cn3)nc2n1C1CCCC1` [RIBOCICLIB]: the Kd in assay [1], in assay [2], in assay [3], in assay [4] and in assay [5] was > 30 µM (inactive) each time.

On to `CNC(=O)CN1CCC(Oc2cc3c(Nc4cccc(Cl)c4F)ncnc3cc2OC)CC1` [SAPITINIB], for which the Kd in assay [1], in assay [2], in assay [3], in assay [4] and in assay [5] was > 30 µM (inactive) in each case.

Consider `Cc1cc([C@@H](C)Nc2ccccc2C(=O)O)c2nc(N3CCOCC3)cc(=O)n2c1` [AZD-6482], for which the Kd in assay [1], in assay [2], in assay [3], in assay [4] and in assay [5] was > 30 µM (inactive) each time.

As for `CCN1CCN(Cc2ccc(-c3cc4c(N[C@H](C)c5ccccc5)ncnc4[nH]3)cc2)CC1` [AEE-788], the Kd is > 30 µM (inactive) in assay [1]; 0.632 µM (active) in assay [2]; > 30 µM (inactive) in assay [3]; > 30 µM (inactive) in assay [4]; > 30 µM (inactive) in assay [5].

Take `CN1N=C(N)c2cn([C@@H]3O[C@H](COP(=O)(O)O)[C@@H](O)[C@H]3O)c3ncnc1c23` [TRICIRIBINE PHOSPHATE]: the Kd in assay [1], in assay [2], in assay [3], in assay [4] and in assay [5] was > 30 µM (inactive) in each case.

As to `CC(=O)Nc1cccc(-n2c(=O)n(C3CC3)c(=O)c3c(Nc4ccc(I)cc4F)n(C)c(=O)c(C)c32)c1` [TRAMETINIB], the Kd in assay [1], in assay [2], in assay [3], in assay [4] and in assay [5] was > 30 µM (inactive) in each case.

Regarding `COCCNCc1ccc(-c2cc3nccc(Oc4ccc(NC(=S)NC(=O)Cc5ccc(F)cc5)cc4F)c3s2)nc1` [GLESATINIB], the Kd in assay [1], in assay [2], in assay [3], in assay [4] and in assay [5] was > 30 µM (inactive) in each case.
